Values quoted from earlier work, collected in patent publication US20220143046A1, “COMPOSITION AND METHODS FOR RECTAL DELIVERY OF 4-AAPA AND 5-ASA COMPOUNDS” (9 METERS BIOPHARMA, INC., priority 2019, published 2022).

Details: oral formulation; two Phase 1 clinical trials for mild to moderate ulcerative colitis

For `O=C(O)Cc1ccc(/N=N/c2ccc(O)c(C(=O)O)c2)cc1` [INN-108, 5-(4-carboxymethyl-phenylazo)-2-hydroxybenzoic acid], the systemic absorption is given as “no evidence of systemic absorption”.
